# Test results as given in patent US20260257998A1, “ERR MODULATORS” (University of Health Sciences and Pharmacy in St. Louis, priority 2023, published 2026).
# What was measured:
# ERRα = target: T1, ERRα (Homo sapiens, UniProt P11474); assay: ERRE luciferase reporter assay in HEK293 cells transfected with pcDNA3.1 ERRα; assay type: cell-based; set-up: key to EC50 (ERRα): ***<1 μM; **1-5 μM; *>5 μM; i.a. (inactive); conditions: 24 hours treatment, luciferase activity
# T1 construct: expressed in transfected cells; host or cells: HEK293
# T1 sequence (P11474 1-423): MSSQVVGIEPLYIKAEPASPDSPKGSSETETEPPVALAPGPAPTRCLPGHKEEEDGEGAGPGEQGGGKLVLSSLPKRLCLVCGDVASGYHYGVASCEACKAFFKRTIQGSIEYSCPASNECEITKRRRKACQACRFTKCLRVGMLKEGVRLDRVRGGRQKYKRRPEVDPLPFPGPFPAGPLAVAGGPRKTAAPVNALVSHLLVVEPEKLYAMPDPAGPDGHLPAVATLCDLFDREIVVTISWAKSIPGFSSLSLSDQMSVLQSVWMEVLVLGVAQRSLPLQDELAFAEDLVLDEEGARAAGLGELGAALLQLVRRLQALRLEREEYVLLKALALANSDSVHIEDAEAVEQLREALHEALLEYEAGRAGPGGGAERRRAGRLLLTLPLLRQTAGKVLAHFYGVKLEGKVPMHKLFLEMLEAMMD
# Method: (§1) HEK293 cells were maintained in Dulbecco's modified Eagles medium (DMEM) supplemented with 10% fetal bovine serum at 37° C. under 5% CO2. […] Cells were transfected with ERRE reporter construct and pcDNA3.1 ERRα or ERRγ. Twenty-four-hours post-transfection, the cells were treated with vehicle or compound (various concentrations) for 24 hours (4 wells per dose). Luciferase activity was measured using the One-Glo Tox luciferase reporter assay system (Promega) and […] were calculated using GraphPad Prism software.
# ERRγ = target: T2, ERRγ (Homo sapiens, UniProt P62508); assay: ERRE luciferase reporter assay in HEK293 cells transfected with pcDNA3.1 ERRγ; assay type: cell-based; set-up: key to EC50 (ERRγ): ***<1 μM; **1-5 μM; *>5 μM; i.a. (inactive); conditions: 24 hours treatment, luciferase activity
# T2 construct: expressed in transfected cells; host or cells: HEK293
# T2 sequence (P62508 1-458): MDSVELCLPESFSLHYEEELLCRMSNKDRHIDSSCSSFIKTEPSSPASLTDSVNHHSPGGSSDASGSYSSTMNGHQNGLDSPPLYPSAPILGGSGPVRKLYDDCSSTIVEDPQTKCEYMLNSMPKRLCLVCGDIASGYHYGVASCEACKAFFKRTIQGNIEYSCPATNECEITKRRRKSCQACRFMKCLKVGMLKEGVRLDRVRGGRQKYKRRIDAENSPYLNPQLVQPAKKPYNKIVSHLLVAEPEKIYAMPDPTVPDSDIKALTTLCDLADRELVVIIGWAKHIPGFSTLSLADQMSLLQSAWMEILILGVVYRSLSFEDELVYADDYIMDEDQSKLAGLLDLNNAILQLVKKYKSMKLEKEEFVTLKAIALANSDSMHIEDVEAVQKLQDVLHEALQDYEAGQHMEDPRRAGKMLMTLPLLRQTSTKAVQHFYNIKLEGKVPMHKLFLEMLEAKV
# Method: as §1
smiles,measurement,setting,value
"Cc1cc(C2CC(c3ccc(C(F)(F)F)cc3)=NN2)cc(C)c1O (centres unmarked) [Entry 70, 2,6-dimethyl-4-(3-(4-(trifluoromethyl)phenyl)-4,5-dihydro-1H-pyrazol-5-yl)phenol]",EC50 (ERRα),ERRα,i.a.
same,EC50 (ERRγ),ERRγ,i.a.
"Oc1ccc(C2CC(c3ccccc3O)=NN2)cc1 (centres unmarked) [Entry 67, 2-(5-(4-hydroxyphenyl)-4,5-dihydro-1H-pyrazol-3-yl)phenol]",EC50 (ERRα),ERRα,i.a.
same,EC50,ERRγ,> 5 µM
"Oc1cccc(C2CC(c3cccc(Br)c3)=NN2)c1 (centres unmarked) [Entry 97, 3-(3-(3-bromophenyl)-4,5-dihydro-1H-pyrazol-5-yl)phenol]",EC50,ERRα,1 to 5 µM
same,EC50,ERRγ,1 to 5 µM
"Oc1ccccc1C1=NNC(c2ccc(Cl)cc2)C1 (centres unmarked) [Entry 66, 2-(5-(4-chlorophenyl)-4,5-dihydro-1H-pyrazol-3-yl)phenol]",EC50,ERRα,< 1 µM
same,EC50,ERRγ,< 1 µM
"COc1cccc(C2=NN(C(C)=O)C(c3ccccc3O)C2)c1 (centres unmarked) [Entry 13, 1-(5-(2-Hydroxyphenyl)-3-(3-methoxyphenyl)-4,5-dihydro-1H-pyrazol-1-yl)ethan-1-one]",EC50 (ERRα),ERRα,i.a.
same,EC50 (ERRγ),ERRγ,i.a.
"Oc1cccc(C2=NNC(c3ccccc3O)C2)c1 (centres unmarked) [Entry 96, 2-(3-(3-hydroxyphenyl)-4,5-dihydro-1H-pyrazol-5-yl)phenol]",EC50,ERRα,1 to 5 µM
same,EC50,ERRγ,> 5 µM
"Fc1ccc(C2=NNC(c3ccc4ccccc4c3)C2)cc1 (centres unmarked) [Entry 91, 3-(4-fluorophenyl)-5-(naphthalen-2-yl)-4,5-dihydro-1H-pyrazole]",EC50 (ERRα),ERRα,i.a.
same,EC50 (ERRγ),ERRγ,i.a.
"Oc1cccc(C2CC(c3ccccc3F)=NN2)c1 (centres unmarked) [Entry 90, 3-(3-(2-fluorophenyl)-4,5-dihydro-1H-pyrazol-5-yl)phenol]",EC50,ERRα,1 to 5 µM
same,EC50,ERRγ,1 to 5 µM
"Oc1ccccc1C1CC(c2cccc(Br)c2)=NN1 (centres unmarked) [Entry 29, 2-(3-(3-Bromophenyl)-4,5-dihydro-1H-pyrazol-5-yl)phenol]",EC50,ERRα,> 5 µM
same,EC50,ERRγ,> 5 µM
"Oc1ccccc1C1CC(c2ccccc2F)=NN1 (centres unmarked) [Entry 54, 2-(3-(2-Fluorophenyl)-4,5-dihydro-1H-pyrazol-5-yl)phenol]",EC50,ERRα,1 to 5 µM
same,EC50,ERRγ,> 5 µM
"Oc1ccccc1C1=NNC(c2c(O)cccc2Cl)C1 (centres unmarked) [Entry 69, 3-chloro-2-(3-(2-hydroxyphenyl)-4,5-dihydro-1H-pyrazol-5-yl)phenol]",EC50 (ERRα),ERRα,i.a.
same,EC50 (ERRγ),ERRγ,i.a.
"Oc1c(Br)cc(Br)cc1C1CC(c2ccc3ccccc3c2)=NN1 (centres unmarked) [Entry 116, 2,4-dibromo-6-(3-(naphthalen-2-yl)-4,5-dihydro-1H-pyrazol-5-yl)phenol]",EC50 (ERRα),ERRα,i.a.
same,EC50 (ERRγ),ERRγ,i.a.
"CC(C)(C)c1cc(C2CC(c3ccc(Br)cc3)=NN2)c(O)c(C(C)(C)C)c1 (centres unmarked) [Entry 115, 2-(3-(4-bromophenyl)-4,5-dihydro-1H-pyrazol-5-yl)-4,6-di-tert-butylphenol]",EC50 (ERRα),ERRα,i.a.
same,EC50 (ERRγ),ERRγ,i.a.
"Oc1ccc(C2CC(c3cc(C(F)(F)F)cc(C(F)(F)F)c3)=NN2)cc1 (centres unmarked) [Entry 9, 4-(3-(3,5-bis(trifluoromethyl)phenyl)-4,5-dihydro-1H-pyrazol-5-yl)phenol]",EC50 (ERRα),ERRα,i.a.
same,EC50 (ERRγ),ERRγ,i.a.
"COc1ccc(C2=NNC(c3ccccc3O)C2)cc1 (centres unmarked) [Entry 42, 2-(3-(4-Methoxyphenyl)-4,5-dihydro-1H-pyrazol-5-yl)phenol]",EC50,ERRα,< 1 µM
same,EC50,ERRγ,< 1 µM
"CC(=O)N1N=C(c2ccccc2O)CC1c1ccccc1O (centres unmarked) [Entry 15, 1-(3,5-bis(2-hydroxyphenyl)-4,5-dihydro-1H-pyrazol-1-yl)ethan-1-one]",EC50 (ERRα),ERRα,i.a.
same,EC50 (ERRγ),ERRγ,i.a.
"FC(F)(F)c1cccc(C2=NNC(c3ccc4ccccc4c3)C2)c1 (centres unmarked) [Entry 83, 5-(naphthalen-2-yl)-3-(3-(trifluoromethyl)phenyl)-4,5-dihydro-1H-pyrazole]",EC50 (ERRα),ERRα,i.a.
same,EC50 (ERRγ),ERRγ,i.a.
"Cc1ccc(O)c(C2CC(c3ccc(Cl)cc3Cl)=NN2)c1 (centres unmarked) [Entry 49, 2-(3-(2,4-Dichlorophenyl)-4,5-dihydro-1H-pyrazol-5-yl)-4-methylphenol]",EC50 (ERRα),ERRα,i.a.
same,EC50 (ERRγ),ERRγ,i.a.
"FC(F)(F)c1cc(C2=NNC(c3ccc(Cl)cc3)C2)cc(C(F)(F)F)c1 (centres unmarked) [Entry 68, 3-(3,5-bis(trifluoromethyl)phenyl)-5-(4-chlorophenyl)-4,5-dihydro-1H-pyrazole]",EC50 (ERRα),ERRα,i.a.
same,EC50 (ERRγ),ERRγ,i.a.
"Oc1cccc(C2CC(c3ccc(Cl)cc3)=NN2)c1 (centres unmarked) [Entry 10, 3-(3-(4-Chlorophenyl)-4,5-dihydro-1H-pyrazol-5-yl)phenol]",EC50,ERRα,1 to 5 µM
same,EC50,ERRγ,< 1 µM
"Clc1ccc(C2=NNC(c3ccc(Br)cc3)C2)cc1 (centres unmarked) [Entry 112, 5-(4-bromophenyl)-3-(4-chlorophenyl)-4,5-dihydro-1H-pyrazole]",EC50 (ERRα),ERRα,i.a.
same,EC50 (ERRγ),ERRγ,i.a.
"Cc1ccc(C2CC(c3cc(C(F)(F)F)cc(C(F)(F)F)c3)=NN2)c(O)c1 (centres unmarked) [Entry 65, 2-(3-(3,5-bis(trifluoromethyl)phenyl)-4,5-dihydro-1H-pyrazol-5-yl)-5-methylphenol]",EC50 (ERRα),ERRα,i.a.
same,EC50 (ERRγ),ERRγ,i.a.
"COc1cccc(C2=NNC(c3ccccc3O)C2)c1 (centres unmarked) [Entry 62, 2-(3-(3-methoxyphenyl)-4,5-dihydro-1H-pyrazol-5-yl)phenol]",EC50,ERRα,1 to 5 µM
same,EC50 (ERRγ),ERRγ,i.a.
"Oc1cccc(C2=NNC(c3ccc4cc(O)ccc4c3)C2)c1 (centres unmarked) [Entry 94, 6-(3-(3-hydroxyphenyl)-4,5-dihydro-1H-pyrazol-5-yl)naphthalen-2-ol]",EC50,ERRα,1 to 5 µM
same,EC50 (ERRγ),ERRγ,i.a.
"CC(=O)N1N=C(c2cccc(C)c2)CC1c1ccccc1O (centres unmarked) [Entry 14, 1-(5-(2-Hydroxyphenyl)-3-(m-tolyl)-4,5-dihydro-1H-pyrazol-1-yl)ethan-1-one]",EC50 (ERRα),ERRα,i.a.
same,EC50 (ERRγ),ERRγ,i.a.
"Oc1cccc(C2CC(c3cccc(F)c3)=NN2)c1 (centres unmarked) [Entry 78, 3-(3-(3-fluorophenyl)-4,5-dihydro-1H-pyrazol-5-yl)phenol]",EC50,ERRα,1 to 5 µM
same,EC50 (ERRγ),ERRγ,i.a.
"COc1ccccc1C1=NNC(c2cccc(Cl)c2O)C1 (centres unmarked) [Entry 60, 2-chloro-6-(3-(2-methoxyphenyl)-4,5-dihydro-1H-pyrazol-5-yl)phenol]",EC50 (ERRα),ERRα,i.a.
same,EC50 (ERRγ),ERRγ,i.a.
"Brc1ccc(C2=NNC(c3ccc4ccccc4c3)C2)cc1 (centres unmarked) [Entry 81, 3-(4-bromophenyl)-5-(naphthalen-2-yl)-4,5-dihydro-1H-pyrazole]",EC50 (ERRα),ERRα,i.a.
same,EC50 (ERRγ),ERRγ,i.a.
"Oc1ccccc1C1CC(c2ccncc2)=NN1 (centres unmarked) [Entry 2, 2-(3-(pyridin-4-yl)-4,5-dihydro-1H-pyrazol-5-yl)phenol]",EC50 (ERRα),ERRα,i.a.
same,EC50,ERRγ,> 5 µM
"Cc1ccc(C2CC(c3ccc(Br)cc3)=NN2)c(O)c1 (centres unmarked) [Entry 61, 2-(3-(4-bromophenyl)-4,5-dihydro-1H-pyrazol-5-yl)-5-methylphenol]",EC50 (ERRα),ERRα,i.a.
same,EC50,ERRγ,> 5 µM
"Clc1ccc(C2=NNC(c3ccc4ccccc4c3)C2)cc1 (centres unmarked) [Entry 104, 3-(4-chlorophenyl)-5-(naphthalen-2-yl)-4,5-dihydro-1H-pyrazole]",EC50 (ERRα),ERRα,i.a.
same,EC50 (ERRγ),ERRγ,i.a.
"Oc1ccccc1C1CC(c2ccc(F)cc2)=NN1 (centres unmarked) [Entry 46, 2-(3-(4-Fluorophenyl)-4,5-dihydro-1H-pyrazol-5-yl)phenol]",EC50,ERRα,1 to 5 µM
same,EC50,ERRγ,> 5 µM
"Oc1cc(Br)ccc1C1CC(c2ccc(Br)cc2)=NN1 (centres unmarked) [Entry 118, 5-bromo-2-(3-(4-bromophenyl)-4,5-dihydro-1H-pyrazol-5-yl)phenol]",EC50 (ERRα),ERRα,i.a.
same,EC50 (ERRγ),ERRγ,i.a.
"Oc1ccccc1C1CC(c2ccccn2)=NN1 (centres unmarked) [Entry 25, 2-(3-(Pyridin-2-yl)-4,5-dihydro-1H-pyrazol-5-yl)phenol]",EC50,ERRα,> 5 µM
same,EC50,ERRγ,> 5 µM
"COc1ccccc1C1=NNC(c2ccccc2O)C1 (centres unmarked) [Entry 53, 2-(3-(2-Methoxyphenyl)-4,5-dihydro-1H-pyrazol-5-yl)phenol]",EC50,ERRα,1 to 5 µM
same,EC50,ERRγ,1 to 5 µM
"Oc1ccccc1C1CC(c2cccc(OC(F)(F)F)c2)=NN1 (centres unmarked) [Entry 1, o-[3-(m-Trifluoromethoxy-phenyl)-2-pyrazolin-5-yl]phenol]",EC50,ERRα,> 5 µM
same,EC50 (ERRγ),ERRγ,i.a.
"Oc1ccc(C2CC(c3cccc(F)c3)=NN2)cc1 (centres unmarked) [Entry 77, 4-(3-(3-fluorophenyl)-4,5-dihydro-1H-pyrazol-5-yl)phenol]",EC50,ERRα,> 5 µM
same,EC50,ERRγ,> 5 µM
